Experimental data from ChEMBL document CHEMBL1201862, “PubChem BioAssay data set” (2004).
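Exposure lasted 48 hours, with cells grown in 96-well plates and compounds tested at five concentrations. The concentration for 50% growth inhibition is given as GI50.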 Activity calls are given as the source filed them. No stated cut-off is given here; in the data, active = GI50 up to about 1.1 µM and inactive = higher.

Legend:
Test in all cases: inhibition of tumour cell growth, NCI panel, 48 h
A549 = system: A549
ACHN = system: ACHN
EKVX = system: EKVX
HCT-116 = system: HCT-116
HOP-62 = system: HOP-62
MCF7 = system: MCF7
MDA-MB-435 = system: MDA-MB-435
MOLT-4 = system: MOLT-4
NCI-H226 = system: NCI-H226
NCI-H522 = system: NCI-H522
OVCAR-3 = system: OVCAR-3
OVCAR-4 = system: OVCAR-4
PC-3 = system: PC-3
SF-295 = system: SF-295
SK-MEL-5 = system: SK-MEL-5
SN12C = system: SN12C
SR = system: SR
T47D = system: T47D
TK-10 = system: TK-10
U-251 = system: U-251

Measured: GI50

Cc1cc2c(nn1)-c1ccccc1C2=O
inactive: A549 > 10 µM | ACHN > 10 µM | EKVX > 10 µM | HCT-116 > 10 µM | HOP-62 > 10 µM | MCF7 > 10 µM | MDA-MB-435 > 10 µM | MOLT-4 > 10 µM | NCI-H226 > 10 µM | NCI-H522 > 10 µM | OVCAR-3 > 10 µM | OVCAR-4 > 10 µM | PC-3 > 10 µM | SF-295 > 10 µM | SK-MEL-5 > 10 µM | SN12C > 10 µM | SR > 10 µM | T47D > 10 µM | TK-10 > 10 µM | U-251 > 10 µM

O=[N+]([O-])c1ccc(-c2nc(/C=N/N3CCCCC3)cs2)o1
inactive: A549 40 µM | ACHN > 100 µM | EKVX > 100 µM | HCT-116 34.1 µM | HOP-62 53 µM | MCF7 38.6 µM | MDA-MB-435 27.7 µM | MOLT-4 26.5 µM | NCI-H226 > 100 µM | NCI-H522 45.2 µM | OVCAR-3 26.3 µM | OVCAR-4 23.6 µM | PC-3 > 100 µM | SF-295 > 100 µM | SK-MEL-5 18 µM | SN12C 16.2 µM | SR 30.9 µM | T47D 90.2 µM | TK-10 > 100 µM | U-251 > 100 µM

CCCN(C(=O)c1c(Cl)nnc(Cl)c1C(=O)c1cc(Cl)nnc1Cl)c1cc(Cl)nnc1Cl
inactive: A549 32.1 µM | ACHN 12.9 µM | EKVX 12.7 µM | HCT-116 6.87 µM | HOP-62 19 µM | MCF7 4.49 µM | MDA-MB-435 6.03 µM | MOLT-4 3.36 µM | NCI-H226 18.5 µM | NCI-H522 3.24 µM | OVCAR-3 10.9 µM | OVCAR-4 14.5 µM | PC-3 6.61 µM | SF-295 19.9 µM | SK-MEL-5 9.18 µM | SN12C 12.4 µM | SR 3.08 µM | T47D 4.55 µM | TK-10 18 µM | U-251 16.2 µM

Cc1ccc(/N=C2/C(c3ccccc3)=C(SC3=C(c4ccccc4)/C(=N/c4ccc(C)cc4)c4ccccc43)c3ccccc32)cc1
inactive: A549 32.9 µM | ACHN 3.38 µM | EKVX 19.1 µM | HCT-116 20.9 µM | HOP-62 10 µM | MCF7 27.1 µM | MDA-MB-435 > 100 µM | MOLT-4 > 87.7 µM | NCI-H226 24.4 µM | NCI-H522 34.6 µM | OVCAR-3 27.5 µM | OVCAR-4 4.09 µM | PC-3 55 µM | SF-295 12.5 µM | SK-MEL-5 19.4 µM | SN12C 20.9 µM | SR > 100 µM | T47D 33.3 µM | TK-10 31.9 µM | U-251 15.7 µM
